Source: ChEMBL document CHEMBL2150993, “Substituted thiazoles VII. Synthesis and antitumor activity of certain 2-(substituted amino)-4-phenyl-1,3-thiazole analogs” (2012)

Key:
Format in all cases: functional
[1] = Antiproliferative activity against human CNS cancer cells after 48 hrs by cell counting analysis; conditions: Cancer cell lines
[2] = Antiproliferative activity against human colon cancer cells after 48 hrs by cell counting analysis; conditions: Cancer cell lines
[3] = Antiproliferative activity against human prostate cancer cells after 48 hrs by cell counting analysis; conditions: Cancer cell lines
[4] = Antiproliferative activity against human ovarian cancer cells after 48 hrs by cell counting analysis; conditions: Cancer cell lines
[5] = Antiproliferative activity against human melanoma cells after 48 hrs by cell counting analysis
[6] = Antiproliferative activity against human leukemia cells after 48 hrs by cell counting analysis
[7] = Antiproliferative activity against human renal cancer cells after 48 hrs by cell counting analysis; conditions: Cancer cell lines
[8] = Antiproliferative activity against human breast cancer cells after 48 hrs by cell counting analysis; conditions: Cancer cell lines
[9] = Antiproliferative activity against human non-small cell lung cancer cells after 48 hrs by cell counting analysis; conditions: Cancer cell lines
U-251 = experiment: Growth inhibition of human U251 cells after 48 hrs by cell counting analysis; conditions: at 10 µM
SR = experiment: Growth inhibition of human SR cells after 48 hrs by cell counting analysis; conditions: at 10 µM
SK-MEL-2 = experiment: Growth inhibition of human SK-MEL-2 cells after 48 hrs by cell counting analysis; conditions: at 10 µM
PC-3 = experiment: Growth inhibition of human PC3 cells after 48 hrs by cell counting analysis; conditions: at 10 µM
HOP-92 = experiment: Growth inhibition of human HOP92 cells after 48 hrs by cell counting analysis; conditions: at 10 µM
CAKI-1 = experiment: Growth inhibition of human Caki1 cells after 48 hrs by cell counting analysis; conditions: at 10 µM
BT-549 = experiment: Growth inhibition of human BT549 cells after 48 hrs by cell counting analysis; conditions: at 10 µM
SNB-19 = experiment: Growth inhibition of human SNB19 cells after 48 hrs by cell counting analysis; conditions: at 10 µM
K562 = experiment: Growth inhibition of human K562 cells after 48 hrs by cell counting analysis; conditions: at 10 µM
OVCAR-8 = experiment: Growth inhibition of human OVCAR8 cells after 48 hrs by cell counting analysis; conditions: at 10 µM
[10] = Growth inhibition of human NCI-322M cells after 48 hrs by cell counting analysis; conditions: at 10 µM
A549 = experiment: Growth inhibition of human A549 cells after 48 hrs by cell counting analysis; conditions: at 10 µM
HCT-15 = experiment: Growth inhibition of human HCT15 cells after 48 hrs by cell counting analysis; conditions: at 10 µM
SN12C = experiment: Growth inhibition of human SN12C cells after 48 hrs by cell counting analysis; conditions: at 10 µM
MDA-MB-468 = experiment: Growth inhibition of human MDA-MB-468 cells after 48 hrs by cell counting analysis; conditions: at 10 µM
HT-29 = experiment: Growth inhibition of human HT-29 cells after 48 hrs by cell counting analysis; conditions: at 10 µM
LOX IMVI = experiment: Growth inhibition of human LOXIMVI cells after 48 hrs by cell counting analysis; conditions: at 10 µM
UACC-257 = experiment: Growth inhibition of human UACC257 cells after 48 hrs by cell counting analysis; conditions: at 10 µM
HOP-62 = experiment: Growth inhibition of human HOP62 cells after 48 hrs by cell counting analysis; conditions: at 10 µM
HCC 2998 = experiment: Growth inhibition of human HCC2998 cells after 48 hrs by cell counting analysis; conditions: at 10 µM
OVCAR-5 = experiment: Growth inhibition of human OVCAR5 cells after 48 hrs by cell counting analysis; conditions: at 10 µM
SF-295 = experiment: Growth inhibition of human SF295 cells after 48 hrs by cell counting analysis; conditions: at 10 µM
SNB-75 = experiment: Growth inhibition of human SNB75 cells after 48 hrs by cell counting analysis; conditions: at 10 µM
ACHN = experiment: Growth inhibition of human ACHN cells after 48 hrs by cell counting analysis; conditions: at 10 µM
MDA-MB-231 = experiment: Growth inhibition of human MDA-MB-231 cells after 48 hrs by cell counting analysis; conditions: at 10 µM
SK-MEL-5 = experiment: Growth inhibition of human SK-MEL-5 cells after 48 hrs by cell counting analysis; conditions: at 10 µM
HL-60 = experiment: Growth inhibition of human HL60 cells after 48 hrs by cell counting analysis; conditions: at 10 µM
UACC-62 = experiment: Growth inhibition of human UACC62 cells after 48 hrs by cell counting analysis; conditions: at 10 µM
RPMI-8226 = experiment: Growth inhibition of human RPMI8226 cells after 48 hrs by cell counting analysis; conditions: at 10 µM
M14 = experiment: Growth inhibition of human M14 cells after 48 hrs by cell counting analysis; conditions: at 10 µM
RXF 393 = experiment: Growth inhibition of human RXF393 cells after 48 hrs by cell counting analysis; conditions: at 10 µM
Malme-3M = experiment: Growth inhibition of human MALME-3M cells after 48 hrs by cell counting analysis; conditions: at 10 µM
UO-31 = experiment: Growth inhibition of human UO31 cells after 48 hrs by cell counting analysis; conditions: at 10 µM
SK-MEL-28 = experiment: Growth inhibition of human SK-MEL-28 cells after 48 hrs by cell counting analysis; conditions: at 10 µM
NCI-H23 = experiment: Growth inhibition of human NCI-H23 cells after 48 hrs by cell counting analysis; conditions: at 10 µM
NCI-H522 = experiment: Growth inhibition of human NCI-H522 cells after 48 hrs by cell counting analysis; conditions: at 10 µM
EKVX = experiment: Growth inhibition of human EKVX cells after 48 hrs by cell counting analysis; conditions: at 10 µM
MDA-MB-435 = experiment: Growth inhibition of human MDA-MB-435 cells after 48 hrs by cell counting analysis; conditions: at 10 µM
SF-539 = experiment: Growth inhibition of human SF539 cells after 48 hrs by cell counting analysis; conditions: at 10 µM
HCT-116 = experiment: Growth inhibition of human HCT116 cells after 48 hrs by cell counting analysis; conditions: at 10 µM
SF-268 = experiment: Growth inhibition of human SF268 cells after 48 hrs by cell counting analysis; conditions: at 10 µM
SK-OV-3 = experiment: Growth inhibition of human SKOV3 cells after 48 hrs by cell counting analysis; conditions: at 10 µM
OVCAR-3 = experiment: Growth inhibition of human OVCAR3 cells after 48 hrs by cell counting analysis; conditions: at 10 µM
T47D = experiment: Growth inhibition of human T47D cells after 48 hrs by cell counting analysis; conditions: at 10 µM
MCF7 = experiment: Growth inhibition of human MCF7 cells after 48 hrs by cell counting analysis; conditions: at 10 µM
IGROV-1 = experiment: Growth inhibition of human IGROV1 cells after 48 hrs by cell counting analysis; conditions: at 10 µM
MOLT-4 = experiment: Growth inhibition of human MOLT4 cells after 48 hrs by cell counting analysis; conditions: at 10 µM
TK-10 = experiment: Growth inhibition of human TK10 cells after 48 hrs by cell counting analysis; conditions: at 10 µM
CCRF-CEM = experiment: Growth inhibition of human CCRF-CEM cells after 48 hrs by cell counting analysis; conditions: at 10 µM
[11] = Growth inhibition of human NCI-ADR-RES cells after 48 hrs by cell counting analysis; conditions: at 10 µM
SW-620 = experiment: Growth inhibition of human SW620 cells after 48 hrs by cell counting analysis; conditions: at 10 µM
KM12 = experiment: Growth inhibition of human KM12 cells after 48 hrs by cell counting analysis; conditions: at 10 µM
OVCAR-4 = experiment: Growth inhibition of human OVCAR4 cells after 48 hrs by cell counting analysis; conditions: at 10 µM
NCI-H226 = experiment: Growth inhibition of human NCI-H226 cells after 48 hrs by cell counting analysis; conditions: at 10 µM
[12] = read-out: LC50 (the source's name)

O=c1[nH]cc(F)c(=O)[nH]1 [FLUOROURACIL]
TGI [1]: > 100 µM | CC50 [1, 12]: > 100 µM | GI50 [2]: 8.4 µM | TGI [2]: > 100 µM | CC50 [2, 12]: > 100 µM | GI50 [3]: 22.7 µM | TGI [3]: > 100 µM | CC50 [3, 12]: > 100 µM | GI50 [4]: 61.4 µM | TGI [4]: > 100 µM | CC50 [4, 12]: > 100 µM | GI50 [5]: 70.6 µM | TGI [5]: > 100 µM | CC50 [5, 12]: > 100 µM | TGI [6]: > 100 µM | CC50 [6, 12]: > 100 µM | GI50 [7]: 45.6 µM | TGI [7]: > 100 µM | CC50 [7, 12]: > 100 µM | GI50 [8]: 76.4 µM | TGI [8]: > 100 µM | CC50 [8, 12]: > 100 µM | GI50 [9]: > 100 µM | TGI [9]: > 100 µM | CC50 [9, 12]: > 100 µM

O=C(CN1CCN(c2ccccc2)CC1)Nc1nc(-c2ccc(Br)cc2)cs1
growth inhibition (GI) (U-251): <10% | growth inhibition (GI) (SR): <10% | growth inhibition (GI) (SK-MEL-2): 14.5% | growth inhibition (GI) (PC-3): 28.5% | growth inhibition (GI) (HOP-92): <10% | growth inhibition (GI) (CAKI-1): 33.5% | growth inhibition (GI) (BT-549): 13.6% | growth inhibition (GI) (SNB-19): 23.9% | growth inhibition (GI) (K562): 70.7% | growth inhibition (GI) (OVCAR-8): 11.9% | growth inhibition (GI) [10]: 20.5% | growth inhibition (GI) (A549): 30.8% | growth inhibition (GI) (HCT-15): 26.1% | growth inhibition (GI) (SN12C): 23.7% | growth inhibition (GI) (MDA-MB-468): 55.6% | growth inhibition (GI) (HT-29): 37.7% | growth inhibition (GI) (LOX IMVI): 11.6% | growth inhibition (GI) (UACC-257): 13.7% | growth inhibition (GI) (HOP-62): <10% | growth inhibition (GI) (HCC 2998): 21% | growth inhibition (GI) (OVCAR-5): <10% | growth inhibition (GI) (SF-295): 20.9% | growth inhibition (GI) (SNB-75): 17.9% | growth inhibition (GI) (ACHN): 15.7% | growth inhibition (GI) (MDA-MB-231): 22.2% | growth inhibition (GI) (SK-MEL-5): 39.4% | growth inhibition (GI) (HL-60): 27.1% | growth inhibition (GI) (UACC-62): 40.1% | growth inhibition (GI) (RPMI-8226): 33.6% | growth inhibition (GI) (M14): 15.7% | growth inhibition (GI) (RXF 393): 13.6% | growth inhibition (GI) (Malme-3M): 13.8% | growth inhibition (GI) (UO-31): 54.6% | growth inhibition (GI) (SK-MEL-28): <10% | growth inhibition (GI) (NCI-H23): 22.5% | growth inhibition (GI) (NCI-H522): 34.5% | growth inhibition (GI) (EKVX): 26.7% | growth inhibition (GI) (MDA-MB-435): 23.9% | growth inhibition (GI) (SF-539): <10% | growth inhibition (GI) (HCT-116): 33.1% | growth inhibition (GI) (SF-268): 17% | growth inhibition (GI) (SK-OV-3): <10% | growth inhibition (GI) (OVCAR-3): <10% | growth inhibition (GI) (T47D): 41.8% | growth inhibition (GI) (MCF7): 41.2% | growth inhibition (GI) (IGROV-1): 34.3% | growth inhibition (GI) (MOLT-4): 47.6% | growth inhibition (GI) (TK-10): 28.3% | growth inhibition (GI) (CCRF-CEM): 22.2% | growth inhibition (GI) [11]: 30.9% | growth inhibition (GI) (SW-620): <10% | growth inhibition (GI) (KM12): <10% | growth inhibition (GI) (OVCAR-4): <10% | growth inhibition (GI) (NCI-H226): 20.2%
